Key:
[1] = biological target: T1, human Cereblon WT GST-tagged protein (Homo sapiens, UniProt Q96SW2); assay: CRBN-binding affinity, HTRF (CEREBLON BINDING kit); settings: for inhibition at 0.5 µM: read-out: Inhibition Rate at 0.5 µM (%); for inhibition at 2 µM: read-out: Inhibition Rate at 2 µM (%); for IC50: CRBN binding, HTRF, 3 hours at room temperature, read-out: HTRF IC50
T1 construct: purchased CISBIO 64BDCRBNPEH

[2] = biological target: T2, IKZF2 (Homo sapiens, UniProt Q96SW2+Q9UKS7); assay: Western blot, degradation of substrate protein in hPBMCs; format: cell-based
T2 construct: effects of the compounds of the present disclosure on the expression of target proteins in cells; endogenous in cells; host or cells: human PBMCs (Milecell Biotechnologies)

[3] = biological target: T3, WEE1 (Homo sapiens, UniProt P30291+Q96SW2); assay: as above; format: cell-based
T3 construct: effects of the compounds of the present disclosure on the expression of target proteins in cells; endogenous in cells; host or cells: human PBMCs (Milecell Biotechnologies)

[4] = biological target: T4, CK1α (Homo sapiens, UniProt P48729+Q96SW2); assay: as above; format: cell-based
T4 construct: effects of the compounds of the present disclosure on the expression of target proteins in cells; endogenous in cells; host or cells: human PBMCs (Milecell Biotechnologies)

[5] = biological target: T5, IKZF3 (Homo sapiens, UniProt Q96SW2+Q9UKT9); assay: as above; format: cell-based
T5 construct: effects of the compounds of the present disclosure on the expression of target proteins in cells; endogenous in cells; host or cells: human PBMCs (Milecell Biotechnologies)

[6] = biological target: T6, IKZF1 (Homo sapiens, UniProt Q13422+Q96SW2); assay: as above; format: cell-based
T6 construct: effects of the compounds of the present disclosure on the expression of target proteins in cells; endogenous in cells; host or cells: human PBMCs (Milecell Biotechnologies)

[7] = test system: GSPT1; assay: as above; format: cell-based, Human
[8] = Western blot, 24 hours of compound treatment, compounds tested at 50 nM and 500 nM (concentration for the table not stated)
[9] = 24 hours treatment, compounds at 50 nM and 500 nM (concentration behind the class not stated)

T3 sequence (P30291 whole entry): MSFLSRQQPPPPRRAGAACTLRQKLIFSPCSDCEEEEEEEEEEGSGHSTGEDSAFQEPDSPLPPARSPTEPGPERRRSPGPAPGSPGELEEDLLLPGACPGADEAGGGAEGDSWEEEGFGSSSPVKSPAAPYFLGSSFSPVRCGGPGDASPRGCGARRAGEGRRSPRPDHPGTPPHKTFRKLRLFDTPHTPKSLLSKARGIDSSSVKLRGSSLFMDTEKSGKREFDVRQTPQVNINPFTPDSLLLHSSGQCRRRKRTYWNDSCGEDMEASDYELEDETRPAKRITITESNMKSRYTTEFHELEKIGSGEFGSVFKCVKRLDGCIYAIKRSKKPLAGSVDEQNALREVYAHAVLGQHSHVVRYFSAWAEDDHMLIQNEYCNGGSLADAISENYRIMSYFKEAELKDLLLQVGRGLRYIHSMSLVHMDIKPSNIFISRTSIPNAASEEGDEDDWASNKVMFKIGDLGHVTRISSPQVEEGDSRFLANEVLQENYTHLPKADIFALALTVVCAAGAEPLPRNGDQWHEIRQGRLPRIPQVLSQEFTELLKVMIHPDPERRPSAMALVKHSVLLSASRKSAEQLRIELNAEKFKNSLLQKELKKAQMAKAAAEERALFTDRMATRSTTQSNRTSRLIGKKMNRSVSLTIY
T3 sequence (Q96SW2 whole entry): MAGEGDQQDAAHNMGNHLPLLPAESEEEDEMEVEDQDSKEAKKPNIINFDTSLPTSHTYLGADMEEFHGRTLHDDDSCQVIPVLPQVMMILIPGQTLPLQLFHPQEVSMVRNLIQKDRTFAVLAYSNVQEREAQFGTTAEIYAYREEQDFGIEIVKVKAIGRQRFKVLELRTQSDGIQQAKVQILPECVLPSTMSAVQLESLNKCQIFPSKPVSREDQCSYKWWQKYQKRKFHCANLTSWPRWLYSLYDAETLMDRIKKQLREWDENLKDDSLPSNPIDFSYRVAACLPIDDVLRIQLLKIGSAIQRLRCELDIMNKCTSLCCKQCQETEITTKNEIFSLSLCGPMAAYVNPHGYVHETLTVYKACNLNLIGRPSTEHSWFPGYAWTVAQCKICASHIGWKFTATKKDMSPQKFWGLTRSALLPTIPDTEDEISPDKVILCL
T3 sequence (Q16531 whole entry partner): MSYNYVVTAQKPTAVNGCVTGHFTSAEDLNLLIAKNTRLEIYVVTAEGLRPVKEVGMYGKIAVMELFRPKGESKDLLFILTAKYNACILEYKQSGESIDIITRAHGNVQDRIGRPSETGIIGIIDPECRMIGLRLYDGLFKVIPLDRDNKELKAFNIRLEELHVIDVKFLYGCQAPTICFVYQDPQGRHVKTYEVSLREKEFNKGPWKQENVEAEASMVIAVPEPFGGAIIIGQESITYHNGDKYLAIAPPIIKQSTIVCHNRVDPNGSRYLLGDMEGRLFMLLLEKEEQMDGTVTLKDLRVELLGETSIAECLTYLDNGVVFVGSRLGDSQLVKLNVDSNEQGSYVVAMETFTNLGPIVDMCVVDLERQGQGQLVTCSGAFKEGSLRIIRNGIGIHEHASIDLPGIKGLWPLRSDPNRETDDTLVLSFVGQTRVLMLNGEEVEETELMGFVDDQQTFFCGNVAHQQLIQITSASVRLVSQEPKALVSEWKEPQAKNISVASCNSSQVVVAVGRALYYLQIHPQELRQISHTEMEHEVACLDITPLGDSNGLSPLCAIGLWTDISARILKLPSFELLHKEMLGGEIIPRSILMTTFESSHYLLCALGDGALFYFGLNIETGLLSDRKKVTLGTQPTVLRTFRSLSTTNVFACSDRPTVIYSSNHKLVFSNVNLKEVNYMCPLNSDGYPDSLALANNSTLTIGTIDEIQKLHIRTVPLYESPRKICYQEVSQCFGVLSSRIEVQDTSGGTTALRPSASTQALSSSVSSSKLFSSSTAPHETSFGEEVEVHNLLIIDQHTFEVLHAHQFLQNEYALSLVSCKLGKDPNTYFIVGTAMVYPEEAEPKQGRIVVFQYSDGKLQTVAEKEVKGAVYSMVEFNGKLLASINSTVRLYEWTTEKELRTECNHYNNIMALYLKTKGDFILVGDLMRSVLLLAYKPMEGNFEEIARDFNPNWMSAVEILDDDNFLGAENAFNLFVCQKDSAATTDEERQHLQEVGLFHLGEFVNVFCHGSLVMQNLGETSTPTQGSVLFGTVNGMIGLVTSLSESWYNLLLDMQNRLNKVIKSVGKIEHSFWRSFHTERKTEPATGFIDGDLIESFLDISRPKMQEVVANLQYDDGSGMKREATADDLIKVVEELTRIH
T4 sequence (P48729 whole entry): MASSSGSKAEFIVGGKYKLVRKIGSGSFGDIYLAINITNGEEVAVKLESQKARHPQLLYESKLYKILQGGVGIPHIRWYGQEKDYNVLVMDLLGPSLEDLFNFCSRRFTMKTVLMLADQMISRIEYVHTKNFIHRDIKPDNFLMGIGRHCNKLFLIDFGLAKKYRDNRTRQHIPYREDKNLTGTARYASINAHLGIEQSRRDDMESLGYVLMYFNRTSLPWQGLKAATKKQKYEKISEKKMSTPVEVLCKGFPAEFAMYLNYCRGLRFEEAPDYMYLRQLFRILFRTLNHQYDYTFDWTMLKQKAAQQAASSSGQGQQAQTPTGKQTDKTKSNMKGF
T4 sequence (Q96SW2 whole entry): as the sequence (Q96SW2 whole entry) above
T4 sequence (Q16531 whole entry partner): as the sequence (Q16531 whole entry partner) above
T5 sequence (Q9UKT9 whole entry): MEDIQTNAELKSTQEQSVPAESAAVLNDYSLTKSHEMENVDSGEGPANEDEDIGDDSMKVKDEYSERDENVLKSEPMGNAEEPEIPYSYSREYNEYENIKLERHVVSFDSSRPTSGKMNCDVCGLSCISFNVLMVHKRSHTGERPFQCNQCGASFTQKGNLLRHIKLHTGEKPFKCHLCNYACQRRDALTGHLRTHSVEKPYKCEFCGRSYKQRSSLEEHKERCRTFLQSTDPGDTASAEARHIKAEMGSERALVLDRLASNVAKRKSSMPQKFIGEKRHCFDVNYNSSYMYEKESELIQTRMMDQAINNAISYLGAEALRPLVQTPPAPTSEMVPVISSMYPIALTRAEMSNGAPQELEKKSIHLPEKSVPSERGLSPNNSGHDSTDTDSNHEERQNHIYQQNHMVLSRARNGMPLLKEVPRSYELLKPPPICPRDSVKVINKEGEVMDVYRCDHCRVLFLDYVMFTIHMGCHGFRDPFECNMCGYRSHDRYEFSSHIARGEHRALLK
T5 sequence (Q96SW2 whole entry): as the sequence (Q96SW2 whole entry) above
T5 sequence (Q16531 whole entry partner): as the sequence (Q16531 whole entry partner) above
T6 sequence (Q13422 whole entry): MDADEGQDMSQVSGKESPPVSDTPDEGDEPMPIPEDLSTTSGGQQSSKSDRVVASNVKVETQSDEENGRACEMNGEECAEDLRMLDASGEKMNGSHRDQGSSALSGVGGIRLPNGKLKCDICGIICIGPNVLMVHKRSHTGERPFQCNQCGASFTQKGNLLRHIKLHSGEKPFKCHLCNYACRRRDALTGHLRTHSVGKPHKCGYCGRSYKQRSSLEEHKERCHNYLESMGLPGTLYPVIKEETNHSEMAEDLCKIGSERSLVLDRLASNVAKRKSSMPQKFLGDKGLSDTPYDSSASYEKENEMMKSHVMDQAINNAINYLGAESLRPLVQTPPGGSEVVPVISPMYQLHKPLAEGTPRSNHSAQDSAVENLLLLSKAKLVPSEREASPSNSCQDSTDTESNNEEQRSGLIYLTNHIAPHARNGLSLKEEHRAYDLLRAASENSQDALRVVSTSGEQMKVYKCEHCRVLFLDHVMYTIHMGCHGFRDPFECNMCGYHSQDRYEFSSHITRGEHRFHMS
T6 sequence (Q96SW2 whole entry): as the sequence (Q96SW2 whole entry) above
T6 sequence (Q16531 whole entry partner): as the sequence (Q16531 whole entry partner) above
T2 sequence (Q9UKS7 whole entry): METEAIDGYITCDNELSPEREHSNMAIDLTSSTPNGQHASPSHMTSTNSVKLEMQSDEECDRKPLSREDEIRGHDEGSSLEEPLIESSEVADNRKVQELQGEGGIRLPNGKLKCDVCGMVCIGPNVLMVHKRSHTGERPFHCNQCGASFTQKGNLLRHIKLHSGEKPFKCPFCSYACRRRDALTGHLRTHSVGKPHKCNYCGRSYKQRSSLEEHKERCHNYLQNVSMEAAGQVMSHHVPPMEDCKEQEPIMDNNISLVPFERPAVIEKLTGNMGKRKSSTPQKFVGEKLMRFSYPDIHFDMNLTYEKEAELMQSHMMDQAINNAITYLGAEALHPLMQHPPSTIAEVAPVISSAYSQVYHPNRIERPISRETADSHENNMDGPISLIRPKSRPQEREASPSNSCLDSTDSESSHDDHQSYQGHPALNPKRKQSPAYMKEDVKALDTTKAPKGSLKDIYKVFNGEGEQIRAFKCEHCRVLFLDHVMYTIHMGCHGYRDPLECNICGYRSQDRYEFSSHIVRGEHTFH
T2 sequence (Q96SW2 whole entry): as the sequence (Q96SW2 whole entry) above
T2 sequence (Q16531 whole entry partner): as the sequence (Q16531 whole entry partner) above
T1 sequence (Q96SW2 whole entry): as the sequence (Q96SW2 whole entry) above

Row | Structure (SMILES) | inhibition at 0.5 µM [1] [%] | inhibition at 2 µM [1] [%] | IKZF2 substrate protein remaining % [2, 8] | Wee1 substrate protein remaining % [3, 8] | CK1α substrate protein remaining % [4, 8] | IKZF3 substrate protein remaining % [5, 8] | IKZF 1 substrate protein remaining % [6, 8] | GSPT1 substrate protein remaining % [7, 8] | IKZF2 substrate protein remaining % [2, 9] | Wee1 substrate protein remaining % [3, 9] | CK1α substrate protein remaining % [4, 9] | IKZF3 substrate protein remaining % [5, 9] | IKZF 1 substrate protein remaining % [6, 9] | GSPT1 substrate protein remaining % [7, 9] | IC50 [1] [nM]
1 | O=C1CCC(N2Cc3c(CN4CCN(c5ccccc5)CC4)cccc3C2=S)C(=O)N1 (stereo not shown) [GT-08259, 3-(4-((4-phenylpiperazin-1-yl)methyl)-1-thioxoisoindolin-2-yl)piperidine-2,6-dione] | 40 to 53 | 60 to 80 | B (80%< substrate protein remaining %≤ 100%) | A (0% ≤ substrate protein remaining % ≤ 80%) | B (80%< substrate protein remaining %≤ 100%) | B (80%< substrate protein remaining %≤ 100%) | B (80%< substrate protein remaining %≤ 100%) | A (0% ≤ substrate protein remaining % ≤ 80%) |  |  |  |  |  |  | 
2 | O=C1CCC(N2Cc3c(CN4CCC(c5ncnc6scc(-c7ccccc7)c56)CC4)cccc3C2=S)C(=O)N1 (stereo not shown) [GT-08930, 3-(4-((4-(5-phenylthieno[2,3-d]pyrimidin-4-yl)piperidin-1-yl)methyl)-1-thioxoisoindolin-2-yl)piperidine-2,6-dione] | 53 to 60 | 80 to 100 |  |  |  |  |  |  | B (80%< substrate protein remaining %≤ 100%) | A (0% ≤ substrate protein remaining % ≤ 80%) | B (80%< substrate protein remaining %≤ 100%) | B (80%< substrate protein remaining %≤ 100%) | B (80%< substrate protein remaining %≤ 100%) | B (80%< substrate protein remaining %≤ 100%) | 
3 | O=C1CCC(N2Cc3ccc(CN4CCN(C(c5ccccc5)c5ccccn5)CC4)cc3C2=S)C(=O)N1 (stereo not shown) [GT-05041, 3-(6-((4-(phenyl(pyridin-2-yl)methyl)piperazin-1-yl)methyl)-1-thioxoisoindolin-2-yl)piperidine-2,6-dione] |  |  | B (80%< substrate protein remaining %≤ 100%) | B (80%< substrate protein remaining %≤ 100%) | B (80%< substrate protein remaining %≤ 100%) | B (80%< substrate protein remaining %≤ 100%) | A (0% ≤ substrate protein remaining % ≤ 80%) | A (0% ≤ substrate protein remaining % ≤ 80%) |  |  |  |  |  |  | 1500 to 1900
4 | O=C1CCC(N2Cc3c(CN4CCn5c(nnc5C(F)(F)F)C4)cccc3C2=S)C(=O)N1 (stereo not shown) [GT-08365, 3-(1-thioxo-4-((3-(trifluoromethyl)-5,6-dihydro-[1,2,4]triazolo[4,3-a]pyrazin-7(8H)-yl)methyl)isoindolin-2-yl)piperidine-2,6-dione] | 40 to 53 | 60 to 80 | B (80%< substrate protein remaining %≤ 100%) | B (80%< substrate protein remaining %≤ 100%) | B (80%< substrate protein remaining %≤ 100%) | B (80%< substrate protein remaining %≤ 100%) | B (80%< substrate protein remaining %≤ 100%) | A (0% ≤ substrate protein remaining % ≤ 80%) |  |  |  |  |  |  | 
5 | O=C1CCC(N2Cc3c(CN4CC(c5ccnc6cc(F)ccc56)C4)cccc3C2=S)C(=O)N1 (stereo not shown) [GT-08860, 3-(4-((3-(7-fluoroquinolin-4-yl)azetidin-1-yl)methyl)-1-thioxoisoindolin-2-yl)piperidine-2,6-dione] | 60 to 80 | 80 to 100 |  |  |  |  |  |  | B (80%< substrate protein remaining %≤ 100%) | A (0% ≤ substrate protein remaining % ≤ 80%) | B (80%< substrate protein remaining %≤ 100%) | B (80%< substrate protein remaining %≤ 100%) | B (80%< substrate protein remaining %≤ 100%) | A (0% ≤ substrate protein remaining % ≤ 80%) | 
6 | O=C1CCC(N2Cc3ccccc3C2=S)C(=O)N1 (stereo not shown) [GT-05563, 3-(1-thioxoisoindolin-2-yl)piperidine-2,6-dione] |  |  |  |  |  |  |  |  | A (0% ≤ substrate protein remaining % ≤ 80%) | A (0% ≤ substrate protein remaining % ≤ 80%) | B (80%< substrate protein remaining %≤ 100%) | A (0% ≤ substrate protein remaining % ≤ 80%) | A (0% ≤ substrate protein remaining % ≤ 80%) | B (80%< substrate protein remaining %≤ 100%) | < 100
7 | O=C1CCC(N2Cc3cc(CN4CCN(c5ccc(F)cn5)CC4)ccc3C2=S)C(=O)N1 (stereo not shown) [GT-09222, 3-(5-((4-(5-fluoropyridin-2-yl)piperazin-1-yl)methyl)-1-thioxoisoindolin-2-yl)piperidine-2,6-dione] | 60 to 80 | 80 to 100 | B (80%< substrate protein remaining %≤ 100%) | A (0% ≤ substrate protein remaining % ≤ 80%) | B (80%< substrate protein remaining %≤ 100%) | B (80%< substrate protein remaining %≤ 100%) | A (0% ≤ substrate protein remaining % ≤ 80%) | B (80%< substrate protein remaining %≤ 100%) |  |  |  |  |  |  | 
8 | COc1ccc(N2CCN(Cc3cccc4c3CN(C3CCC(=O)NC3=O)C4=S)CC2)cc1 (stereo not shown) [GT-08495, 3-(4-((4-(4-methoxyphenyl)piperazin-1-yl)methyl)-1-thioxoisoindolin-2-yl)piperidine-2,6-dione] | 53 to 60 | 60 to 80 | A (0% ≤ substrate protein remaining % ≤ 80%) | A (0% ≤ substrate protein remaining % ≤ 80%) | B (80%< substrate protein remaining %≤ 100%) | B (80%< substrate protein remaining %≤ 100%) | A (0% ≤ substrate protein remaining % ≤ 80%) | A (0% ≤ substrate protein remaining % ≤ 80%) |  |  |  |  |  |  | 
9 | O=C1CCC(N2Cc3c(CN4C5CCC4CN(C(c4ccccc4)c4ccccc4)C5)cccc3C2=S)C(=O)N1 (stereo not shown) [GT-08235, 3-(4-((3-benzhydryl-3,8-diazabicyclo[3.2.1]octan-8-yl)methyl)-1-thioxoisoindolin-2-yl)piperidine-2,6-dione] | 40 to 53 | 80 to 100 | B (80%< substrate protein remaining %≤ 100%) | B (80%< substrate protein remaining %≤ 100%) | B (80%< substrate protein remaining %≤ 100%) | B (80%< substrate protein remaining %≤ 100%) | B (80%< substrate protein remaining %≤ 100%) | A (0% ≤ substrate protein remaining % ≤ 80%) |  |  |  |  |  |  | 
